Results on seven compounds are retold here after paper PMC7874386, “Protein-observed 19F NMR of LecA from Pseudomonas aeruginosa” (Glycobiology, 2020).

The structures appear in SMILES notation. Where two headings read alike, the source gives them in different places.

The target of test [1] is T1, 5FW LecA (Pseudomonas aeruginosa, UniProt Q05097).
T1 construct: made in house; host or cells: Escherichia coli BL21 (DE3), plasmid pET25pa1l, grown with 5-fluoroindole
The test is described as follows: PrOF NMR titration of ligands to 5FW LecA (W42 peak intensity). The class given is binding. The procedure: All experiments were conducted on Bruker Ascend™700 (AvanceIII HD) spectrometer equipped with a 5 mm TCI700 CryoProbe™ in 3 mm tubes (Norell S-3-800-7) with following parameters: time domain of 1972, relaxation delay 1 s, acquisition time of 0.15 s, spectral width of 10 p.p.m. and 1024 scans resulting in measurement time of 20 minutes.
The decreasing intensity of the unbound W42 in 5FW LecA was followed to determine Kd values of ligands. Here, we used these values to normalize the changes in W42 peak intensities (Inormalized) following the equation (1) resulting in values plotted on Y-axis.(1) where I0 was unbound W42 in the reference spectrum of protein only, Imeasured was unbound W42 peak of protein with a ligand. The Kd values were calculated according to the one-site-binding model in GraphPad Prism 8 (GraphPad Software Inc., San Diego, CA) from three independent titrations.

For test [2], the target named is T2, LecA (Pseudomonas aeruginosa, UniProt Q05097).
T2 construct: made in house; host or cells: Escherichia coli BL21 (DE3) (inferred from the yield comparison; no protocol of its own is printed for the unlabelled protein)
The test is described as follows: Isothermal titration calorimetry of Ca2+ to apo LecA. The conditions noted are these: unlabeled apo LecA, TBS pH 7.4, 25°C; read-out: Kd (ITC). The class given is binding. Here is the method:
ITC was performed on a Microcal ITC200 (General Electric) at 25°C. Calcium ions were removed by extensive dialysis against 1 mM EDTA pH 7.4 (×4) followed by 150 mM NaCl (×4) and distilled water. The protein solution was lyophilized and the solid protein stored at −20°C. A solution of calcium chloride in TBS (20 mM Tris, 137 mM NaCl, 2.6 mM KCl at pH 7.4) was titrated into a calcium-free LecA solution in the same buffer. The data were analyzed according to the one-site-binding model using Microcal Origin software. Four independent titrations were performed using CaCl2 and LecA between 2 and 3 mM and 170 and 200 μM, respectively.

Test [3] concerns the target T2, LecA. The test is described as follows: Competitive binding fluorescence polarization assay with LecA. Here is the method: (§1) The competitive binding assay was performed as reported previously ([Joachim et al. 2016]). In total, 10 μL of LecA (40 μM) and meta-linked fluorescein-conjugate of phenyl-galactopyranoside (20 nM) in TBS pH 7.4 supplemented with 1 mM CaCl2 (TBS/Ca^2+) and 10 μL of compound-dilution series (8 mM to 62 μM, 8% DMSO) in TBS/Ca^2+ buffer were mixed in a 384-well plate (Greiner Bio-One, Germany) in three technical replicates. The sealed plate was centrifuged at 300 g for 1 min and incubated at room temperature with shaking. […] Polarization was calculated and the data were analyzed according to the four-parameter variable slope model (MARS Data Analysis Software, BMG Labtech GmbH, Germany), the top and bottom plateaus were determined from the control Me-α-D-Gal and data were reanalyzed with these values fixed.

Test [4] deals with T1, 5FW LecA. The experiment in a line: Competitive binding fluorescence polarization assay with 5FW LecA. The procedure: as §1
Test [5] deals with T2, LecA. The conditions noted are these: ref Cioci et al. 2003; cited from earlier work.
Test [6] concerns the target T2, LecA. To be noted: cited from earlier work; for affinity improvement compared to galactose: reported Kd values, ref Kadam, et al. 2011, Rodrigue, et al. 2013.

T2 sequence (Q05097 whole entry): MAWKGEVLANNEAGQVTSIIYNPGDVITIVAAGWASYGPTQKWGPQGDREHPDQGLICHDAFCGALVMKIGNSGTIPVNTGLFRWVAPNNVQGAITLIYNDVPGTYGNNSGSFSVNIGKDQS
T1 sequence (Q05097 2-122): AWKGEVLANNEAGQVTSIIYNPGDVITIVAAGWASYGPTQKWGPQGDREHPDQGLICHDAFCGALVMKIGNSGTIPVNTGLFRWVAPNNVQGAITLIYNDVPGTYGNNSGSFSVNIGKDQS

Take `[Ca+2]` [Ca^2+, calcium (II) ion]: the Kd in test [1] (100 μM apo 5FW LecA, MES pH 6, 310 K, one-site-binding model, three independent titrations, listed as Ca2+, read-out: Kd (PrOF NMR, Ca2+ titration)) was 47 ± 8 µM; in test [1] (100 μM apo 5FW LecA, MES pH 6, 310 K, one-site-binding model, three independent titrations, read-out: Kd (PrOF NMR, Ca2+ titration)), 478 µM; in test [2], 60 ± 20 µM.
As for `O=C[C@H](O)[C@@H](O)[C@@H](O)[C@H](O)CO` [D-Gal, D-galactose], the Kd in test [1] is 360 µM; in test [5], 29 µM. Moreover, the IC50 came out at 330 ± 40 µM in test [3] and 317 µM in test [4].
In turn, `CC(=O)N[C@H]1C(O)O[C@H](CO)[C@H](O)[C@@H]1O` (stereo partly drawn) [D-GalNAc, N-acetyl D-galactosamine] gave a Kd in test [1] of 780 ± 97 µM. Further, the IC50 in test [3] was determined as 1230 ± 200 µM; in test [4], 1990 µM. The “IC50 (FP-based assay) higher compared with Kd from PrOF NMR” value in test [4] (5FW LecA) worked out at 3 fold.
Turning to `CC(C)C[C@H](NC(=O)[C@@H]1CCCN1C(=O)[C@H](CCCCN)NC(=O)c1ccc(O[C@@H]2O[C@H](CO)[C@H](O)[C@H](O)[C@H]2O)cc1)C(N)=O` [GalAG0], the Kd in test [6] (ref Kadam et al. 2011, Kadam et al. 2013, Rodrigue et al. 2013) was 4.2 µM.
In the case of `OC[C@H]1O[C@@H](Oc2ccccc2)[C@H](O)[C@@H](O)[C@H]1O` [Ph-β-D-Gal, phenyl-β-D-galactopyranoside], the Kd in test [1] (100 μM holo 5FW LecA, TBS pH 7.8, 310 K, one-site-binding model, three independent titrations, read-out: Kd (PrOF NMR)) was found to be 166 ± 42 µM.
Regarding `OC[C@H]1O[C@@H](Sc2ccc3ccccc3c2)[C@H](O)[C@@H](O)[C@H]1O` [naphthyl β-thio-D-galactoside], the Kd in test [6] (ref Rodrigue et al. 2013) is 6.3 µM. The “affinity improvement compared to galactose” value in test [6] is given as 6 to 7 fold.
Compound `O=[N+]([O-])c1ccc(O[C@@H]2O[C@H](CO)[C@H](O)[C@H](O)[C@H]2O)cc1` [pNPGal, p-nitrophenyl β-D-galactoside] yielded a Kd in test [1] of 54 ± 6 µM. Moreover, in test [1] (Kd in PrOF NMR, pNPGal vs D-Gal), the “improved binding affinity compared to D-Gal” value was 6 fold. Further, in test [6], the “affinity improvement compared to galactose” value is given as 6 to 7 fold.
